Experimental data taken from patent US10022362B2, “Anti-allergy benzocycloheptathiophene derivatives” (FUJIAN MINDONG REJUVENATION PHARMACEUTICAL CO., LTD., priority 2011, dated 2018).

What was measured:
[1] = tested on: Mouse bone marrow derived eosinophils; assay: Inhibition of eosinophil proliferation in vitro (3H-thymidine incorporation); assay type: cell-based; conditions: for thymidine incorporation (eosinophil proliferation): eosinophils cultured with IL-5 (50 ng/ml), treated 1 hour, 3H-thymidine pulse 18 hours, CPM
Experimental: Mouse bone marrow derived eosinophils (1×10^5 cells/well) were seeded in 96 well plates in triplicate and were cultured with IL-5 (50 ng/ml). Eosinophils were treated with 4-[1-(5-methyl-pyridin-3-ylmethyl)piperidin-4-ylidene]-4,9-dihydro-1-thia-benzo[f]azulen-10-one (Compound A) or ketotifen for 1 hour. Cells were then pulsed with 0.5 μCi of ^3H-thymidine for 18 hours. Cells were harvested to glass fiber paper using a suction manifold and washed extensively to eliminate unincorporated thymidine. Fiber paper was dried and added to vials with 2.5 ml of scintillation fluid (Ecolite). Thymidine incorporation was measured on a Wallac beta counter.
The incorporation of ^3H-thymidine (eosinophil proliferation) was quantified by liquid scintillation counting (CPM).

[2] = tested on: Mice passively sensitized with anti-DNP IgE mAb, DNFB challenge; assay: Prophylactic effects: IgE-mediated late phase cutaneous reactions (ear and foot swelling); assay type: in vivo; conditions: 1 mg/kg orally twice (before IgE injection and before DNFB challenge), thickness measured after 24 h, FIG. 1B
Experimental: Mice were given 4-[1-(5-methyl-pyridin-3-ylmethyl)piperidin-4-ylidene]-4,9-dihydro-1-thia-benzo[f]azulen-10-one (1 mg/kg) or ketotifen (1 mg/kg) orally twice as per the schedule dosing regimen provided in FIG. 1A as indicated by the numbered dose in a circle. The first dose (indicated by a circled number 1) was given on day 1 before IgE injection and a 2nd dose (indicated by a circled number 2) was given on day 2 before dinitrofluorobenzene (DNFB, as an allergen) challenge. Mice were passively sensitized by i.v. injection of 2 μg anti-DNP IgE mAb (Sigma). After 24 h, a cutaneous reaction was elicited by the application of 20 μl of DNFB (0.3% wt/vol, Sigma) in acetone-olive oil (4:1) to both sides of the left hind paw or left ear, and 20 μl of acetone-olive oil to the right hind paw or right ear as a control. The thickness of foot pad or ear was measured using a digital micrometer after 24 h. The thickness of the right ear or right hind paw (treated with acetone-olive oil only) was used as baseline values. The DNFB-induced increment of tissue thickness was expressed as the percentage of the baseline values.

[3] = tested on: Mice sensitized with anti-DNP IgE mAb, DNP-BSA challenge; assay: Prophylactic effects: IgE-mediated passive cutaneous anaphylaxis (Evan's blue dye leakage); assay type: in vivo
Experimental: Mice were given 4-[1-(5-methyl-pyridin-3-ylmethyl)piperidin-4-ylidene]-4,9-dihydro-1-thia-benzo[f]azulen-10-one (1 mg/kg) or ketotifen (1 mg/kg) orally as per dosing schedule shown in FIG. 2A. Subsequently, mice were sensitized by intradermal injection of 20 ng antidinitrophenyl (DNP) IgE mAb (Sigma) into left ears, while right ear received saline as a control. After 24 h, mice were challenged by i.v. injection of 100 μg of DNP-Bovine Serum Albumin (BSA) (as an allergen) in 200 μl Evan's blue dye (1% wt/vol, Sigma). Thirty min later, ear punch (8 mm) was collected in 300 μl of formamide and incubated at 80° C. for 2 h in water bath to extract Evan's blue dye. The absorbance was determined at 620 nm. […] Granule-associated mediators such as histamine stimulate endothelium and blood vessel smooth muscle cells leading to increased vascular permeability.

[4] = tested on: Mice passively sensitized with anti-DNP IgE mAb, DNFB application; assay: Therapeutic effects: IgE-mediated late phase cutaneous reactions (ear and foot swelling); assay type: in vivo; conditions: FIG. 3B
Experimental: After 24 h, a cutaneous reaction was elicited by the application of 20 μL of DNFB (0.3% wt/vol, Sigma) in acetone-olive oil (4:1) to both sides of the left hind paw or left ear, and 20 μl of acetone-olive oil to the right hind paw or right ear as a control as shown in FIG. 3A. Three hours after DNFB application, mice were given 4-[1-(5-methyl-pyridin-3-ylmethyl)piperidin-4-ylidene]-4,9-dihydro-1-thia-benzo[f]azulen-10-one (1 mg/kg, p.o.), ketotifen (1 mg/kg, p.o.) or saline as control as indicated in FIG. 3A by the circled number “1”. The thickness of foot pad or ear was measured using a digital micrometer after 24 h of DNFB application. The weight of hind paw or ear punch (5 mm) was also determined. The thickness and weight of the right ear or right hind paw (treated with acetone-olive oil only) were used as baseline values. The DNFB-induced increment of tissue thickness was expressed as the percentage of the baseline values.

[5] = tested on: Mouse bone marrow derived mast cells (BMMCs); assay: Allergen-induced cytokine IL-6 production by mast cells in vitro; assay type: cell-based; conditions: FIG. 4
Experimental: Mouse bone marrow derived mast cells (BMMCs) were resuspended in fresh complete medium supplemented with TIB141-conditioned medium enriched in IgE directed against trinitrophenyl (TNP) at a ratio of 3:1. BMMCs were typically sensitized at 0.5 million/ml. Following sensitization, BMMCs were washed extensively with RPMI 1640 supplemented with 10% FBS alone. BMMCs were then treated with 4-[1-(5-methyl-pyridin-3-ylmethyl)piperidin-4-ylidene]-4,9-dihydro-1-thia-benzo[f]azulen-10-one or ketotifen at the concentration of […], 1, 10 or 100 μM for 1 hour and subsequently stimulated with antigen TNP-BSA (10 ng/ml) for 6 h. Cytokine levels in the cell free supernatant were determined by ELISA.

[6] = 1 mg/kg p.o. each, three hours after DNFB application

| SMILES | thymidine incorporation (eosinophil proliferation) [1] | allergen DNFB-induced ear and foot swelling [2] | allergen (DNP)-induced Evan's blue dye leakage ([3]; 1 mg/kg orally before sensitization, compared to the vehicle control, FIG. 2B) | time after oral administration at which inhibitory effects on Evan's blue dye leakage and tissue swelling were observed ([3]; 1 mg/kg orally, suggesting long-lasting effects) | block of swelling and weight increase of ear and feet, compared with ketotifen [4, 6] | foot weight, activity compared with ketotifen [4, 6] | DNP-induced swelling and increase the weight of the ear and the feet ([4]; 1 mg/kg p.o. three hours after DNFB application, measured 24 h after DNFB application) | cytokine IL-6 production by mast cells ([5]; BMMCs treated at 01, 1, 10 or 100 μM for 1 hour, then TNP-BSA (10 ng/ml) for 6 h, ELISA) | reduction of IL-6 production by mast cells, compared with ketotifen ([5]; equivalent concentrations (01, 1, 10 or 100 μM)) | inhibition on eosinophil proliferation, compared with ketotifen ([1]; p<0.01, n=3 experiments, FIG. 5) |
| --- | --- | --- | --- | --- | --- | --- | --- | --- | --- | --- |
| CN1CCC(=C2c3ccccc3CC(=O)c3sccc32)CC1 [ketotifen, reference compound] | dose-dependently reduced |  |  |  |  |  |  |  |  |  |
| Cc1cncc(CN2CCC(=C3c4ccccc4CC(=O)c4sccc43)CC2)c1 [Compound A, 4-[1-(5-methyl-pyridin-3-ylmethyl)-piperidin-4-ylidene]-4,9-dihydro-1-thia-benzo[f]azulen-10-one] | dose-dependently reduced | strongly reduced | strongly reduced | 24 h | comparable to ketotifen | surpassing the activity of ketotifen | significantly block | significantly reduce | even more effective than ketotifen at some of the equivalent concentrations used | significantly stronger inhibition |
